Data on eight compounds can be found in patent publication US6352993B1, “Pyrimidine derivatives and processes for the preparation thereof” (Yuhan Corporation, priority 1997, dated 2002).

Assay [1] addresses proton pump (H+/K+-ATPase) (UniProt P19156). As to the kind of experiment: Inhibition of proton pump (H+/K+-ATPase activity). Type of assay: biochemical. Also on record: other: K+-stimulated proton pump activity, pH 6.0, 37°. As to conditions: K+-stimulated proton pump activity, pH 6.0, 37° C., 30 minutes preincubation; read-out: IC50 (concentration inhibiting 50% of the proton pump activity). As to the method:
(§1) Test 1: Inhibition of proton pump (H^+/K^+-ATPase activity)
(§2) A proton pump enzyme was prepared by the same method as in the Experiment 1-1 of WO 94/14795. Further, the inhibitory effect of proton pump activity was measured by the same method as in Experiment 1-2 of WO 94/14795.
(§3) Namely, the proton pump activity stimulated by Mg^++ was used as a negative comparative group, and the activity stimulated by Mg^++ and K^+ was used as a positive comparative group. The comparative compound was omeprazole.
(§4) Test tubes were divided into 4 groups: Group 1 as negative comparative group(n=3), Group 2 as positive comparative group(n=3), Group 3(n=5×2) to be administered with the compound of the present invention and Group 4(n=5×2) to be administered with the comparative compound.
(§5) The inhibitory effects of Groups 3 and 4 on proton pump activity were measured by employing the compound prepared in Examples and omeprazole, respectively, each of which was dissolved in dimethylsulfoxide at 5 different concentrations.
(§6) To each of Groups 1, 2, 3 and 4 were added 100 μl of magnesium chloride(40 mM) dissolved in 40 mM Tris-HCI buffer(ph 6.0) and 100 μg of the enzyme source. The 50 μl of potassium chloride(50 mM) and 50 μl of ammonium chloride(6 mM) dissolved in 40 mM Tris-HCl buffer(pH 6.0) were added to all groups except for group 1.
(§7) 10 μl of dimethylsulfoxide was added to each of Groups 1 and 2; and to Group 3 was added 10 μl of dimethylsulfoxide solution prepared by dissolving compound of EXAMPLE at 5 different concentration(n=5×2). To Group 4, 10 μl of the solution prepared by dissolving omeprazole in dimethylsulfoxide at 5 different concentration(37.6, 21.4, 12.2, 7.0 and 4.0 μM) was added(n=5×2). 40 mM Tris-HCI buffer(pH=6.0) was added thereto so as to make the total volume 400 μl.
(§8) Thereafter, the test tube of each Group were placed at 37° C. for 30 minutes for the preincubation. 100 μl ATP solution (6.6 mM) was added until the reaction volume became 500 μl. After the reaction was carried out at 37° C. for 30 minutes, 25% cold trichloroacetic acid was added to terminate the enzyme reaction. The released inorganic phosphate was measured by an automatic analyzer(Express 550, coming).
(§9) The difference between Group 1 and Group 2 represents the proton pump activity activated by K^+ only. The IC50s of Group 3 and 4 were calculated from Litchfield-wilcoxon equation[see, e.g., J. Pharrnacol. Exp. Ther., 96, 99(1949)]. The concentrations of the test compounds inhibiting 50% of the proton pump activity are represented as IC50 in Table 1.

Assay [2] deals with gastric secretion in pylorus-ligated Sprague-Dawly rats. Description: Inhibition of gastric secretion (pylorus-ligated rats, Shay method). It counts as in vivo. To be noted: 20 mg/kg intraduodenally, 5 hours; for Relative conc.: gastric juice acidity relative to omeprazole, equation (II); for Relative volume: gastric juice amount relative to omeprazole, equation (I); for Relative Acid Output: total acid output relative to omeprazole, equation (III). As to the method: Test 2: Inhibition of gastric secretion
In accordance with the method disclosed in Shay, H., et al., Gastroenterology 5 43-61(1945), Test 2 was carried out.
Sprague-Dawly rats having a body weight of 170±10 g were divided into 3 groups(n=5) and deprived of food for 24 hours before the experiment with free access to water. Under ether anesthesia, the abdomen was incised, and the pylorus was ligated. As a comparative group, Group 1 was administered intraduodenally in a volume of 0.5 ml/200 g of 30% aqueous polyethylene glycol 400 solution. Groups 2 and 3 were administered intraduodenally with the compound of Example and omeprazole, respectively, each of which was suspended in 30% aqueous polyethylene glycol 400 solution at a concentration of 20 mg/kg. After closing the abdominal cavity, the rats were placed for 5 hours and then killed by cervical dislocation. The stomach was extracted to obtain gastric juice.
Tne gastric juice was centrifuged at 1,000 g to remove precipitates. The amount and acidity of the gastric juice were measured. Relative volumes, relative acid concentrations and relative acid outputs of the test compounds were calculated from equations(I), (II) and (III) and the results are shown in Table 2.
Relative volume=(the average amount of gastric juice of Group 1—the average amount of gastric juice of Group 2)/(the average amount of gastric juice of Group 1−the average amount of gastric juice of Group 3)—(I)
Relative acid concerntration=(the average acidity of Group 1—the average acidity of Group 2)/(the average acidity of Group 1—the average acidity of Group 3)—(II)
Relative acid output (the total amount of acid output of Group 1—the total amount of acid output of Group 2)/(the total amount of acid output of Group 1—the total amount of acid output of Group 3)—(m)

Assay [3] concerns the target proton pump (H+/K+-ATPase) (UniProt P19156). Description: Inhibition of proton pump (H+/K+-ATPase activity). It counts as biochemical. The arrangement: Effect ratio. To be noted: relative to omeprazole IC50. As to the method: as §1, §2, §3, §4, §5, §6, §7, §8, §9

As to `Cc1csc(Nc2nc(C)c(C)c(N3CCc4ccccc4C3C)n2)n1.Cl` (stereo not shown) [Example 22, 5,6-dimethyl-2-(4-methylthiazol-2-yl)amino-4-(1-methyl-1,2,3,4-tetrahydroisoquinolin-2-yl)pyrimidine hydrochloride], the IC50 in assay [1] was 6690 nM. Moreover, in assay [2], the Relative conc. stood at 0.46, the Relative volume is given as 0.59 and the “Relative Acid Output” value is listed as 0.62. The Effect ratio in assay [3] was 1.7.

Take `Cc1csc(Nc2nc(C)c(C)c(N3CCc4ccccc4C3)n2)n1.Cl` [Example 23, 5,6-dimethyl-2-(4-methylthiazol-2-yl)amino-4-(1,2,3,4-tetrahydroisoquinolin-2-yl)pyrimidine hydrochloride]: in assay [1], the IC50 worked out at 430 nM. In addition, in assay [2], the Relative conc. was found to be 1.34, the Relative volume is 1.58 and the “Relative Acid Output” value came out at 1.23. The Effect ratio in assay [3] was found to be 25.8.

In the case of `CCCNc1nc(COC)c(C)c(N2CCc3ccccc3C2)n1.Cl` [Example 25, 6-methoxymethyl-5-methyl-2-(2-methylethylamino)-4-(1,2,3,4-tetrahydroisoquinolin-2-yl)pyrimidine hydrochloride], in assay [1], the IC50 stood at 1850 nM. In assay [2], the Relative conc. amounted to 0.52, the Relative volume stood at 1.00 and the “Relative Acid Output” value was found to be 0.86. Besides, the Effect ratio in assay [3] was determined as 6.0.

`COCc1nc(Nc2ccc(F)cc2)nc(N2CCc3ccccc3C2)c1C.Cl` [Example 26, 6-methoxymethyl-5-methyl-2-(4-fluorophenylamino)-4-(1,2,3,4-tetrahydroisoquinolin-2-yl)pyrimidine hydrochloride]: the IC50 in assay [1] is 2600 nM. Further, in assay [2], the Relative conc. was found to be 0.64, the Relative volume amounted to 0.67 and the “Relative Acid Output” value came out at 0.74. Also, in assay [3], the Effect ratio worked out at 4.3.

For `COCc1nc(Nc2ccc(F)cc2C)nc(N2CCc3ccccc3C2)c1C.Cl` [Example 27, 6-methoxymethyl-5-methyl-2-(4-fluoro-2-methylphenylamino)-4-(1,2,3,4-tetrahydroisoquinolin-2-yl)pyrimidine hydrochloride], the IC50 in assay [1] came out at 1550 nM. In assay [2], the Relative conc. amounted to 0.68, the Relative volume came out at 0.99 and the “Relative Acid Output” value was 0.90. Besides, the Effect ratio in assay [3] was 7.2.

As for `COCc1nc(Nc2ccc(F)cc2)nc(N2CCc3ccccc3C2C)c1C.Cl` (stereo not shown) [Example 28, 6-methoxymethyl-5-methyl-2-(4-fluorophenylamino)-4-(1-methyl-1,2,3,4-tetrahydroisoquinolin-2-yl)pyrimidine hydrochloride], in assay [1], the IC50 came out at 1740 nM. In assay [2], the Relative conc. is 0.60, the Relative volume amounted to 0.78 and the “Relative Acid Output” value is recorded as 0.78. Also, the Effect ratio in assay [3] is 6.4.

Regarding `COCc1nc(Nc2ccc(F)cc2C)nc(N2CCc3ccccc3C2C)c1C.Cl` (stereo not shown) [Example 29, 6-methoxymethyl-5-methyl-2-(2-methyl-4-fluorophenylamino)-4-(1-methyl-1,2,3,4-tetrahydroisoquinolin-2-yl)pyrimidine hydrochloride], in assay [1], the IC50 stood at 2550 nM. Also, in assay [2], the Relative conc. is 0.81, the Relative volume was 0.78 and the “Relative Acid Output” value was 0.88. Moreover, the Effect ratio in assay [3] came to 4.4.

`COCc1nc(Nc2ccccc2)nc(N2CCc3ccccc3C2C)c1C.Cl` (stereo not shown) [Example 31, 6-methoxymethyl-5-methyl-2-phenylamino-4-(1-methyl-1,2,3,4-tetrahydroisoquinolin-2-yl)pyrimidine hydrochloride]: in assay [1], the IC50 turned out to be 2560 nM. Also, in assay [2], the Relative conc. is reported as 0.97, the Relative volume was found to be 1.06 and the “Relative Acid Output” value is given as 1.01. Moreover, the Effect ratio in assay [3] came out at 4.3.
